In brackets after ≈: the same amount, converted by molar mass. One block for each compound: values may come before it.
How the values were obtained:
[1] = Lipophilicity, log D of the compound at pH 7.4; type: physicochemical; conditions: buffer
[2] = Thermodynamic solubility of the compound in Japanese pharmacopoeia disintegration solution 2 containing bile acid at pH 6.8 after 18 hrs by HPLC analysis; type: physicochemical; conditions: read-out: Therm_solubility
[3] = Metabolic stability in mouse liver microsomes at 1 umol/L; type: ADME, Microsome; conditions: read-out: Stability
[4] = Metabolic stability in human liver microsomes at 1 umol/L; type: ADME, Microsome; conditions: read-out: Stability
[5] = Drug uptake in athymic BALB/cAcl-nu/nu mouse lung xenografted with human A549 cells at 1 mg/kg, po measured at 8 hrs by LC/MS/MS analysis; type: ADME, organism-based; design: dose 1 mg/kg, route oral; conditions: read-out: Drug uptake
[6] = Plasma concentration in athymic BALB/cAcl-nu/nu mouse xenografted with human A549 cells at 1 mg/kg, po measured at 8 hrs by LC/MS/MS analysis; type: ADME, organism-based; design: dose 1 mg/kg, route oral
[7] = Drug uptake in athymic BALB/cAcl-nu/nu mouse lung xenografted with human A549 cells at 1 mg/kg, po measured at 1 hr by LC/MS/MS analysis; type: ADME, organism-based; design: dose 1 mg/kg, route oral; conditions: read-out: Drug uptake
[8] = Plasma concentration in athymic BALB/cAcl-nu/nu mouse xenografted with human A549 cells at 1 mg/kg, po measured at 1 hr by LC/MS/MS analysis; type: ADME, organism-based; design: dose 1 mg/kg, route oral
[9] = Oral bioavailability in cynomolgus monkey at 0.5 mg/kg; type: ADME, organism-based, Macaca fascicularis; conditions: in vivo
[10] = Oral bioavailability in Crl:CD (SD) albino rat at 0.5 mg/kg; type: ADME, organism-based; conditions: in vivo
[11] = Mean residence time in Crl:CD (SD) albino rat at 0.5 mg/kg, po; type: ADME, organism-based; design: dose 0.5 mg/kg, route oral; conditions: in vivo
[12] = Mean residence time in cynomolgus monkey at 0.5 mg/kg, po; type: ADME, organism-based, Macaca fascicularis; design: dose 0.5 mg/kg, route oral; conditions: in vivo
[13] = AUC (0 to 48 hrs) in cynomolgus monkey at 0.5 mg/kg, po; type: ADME, organism-based, Macaca fascicularis; design: time < 48 hr, dose 0.5 mg/kg, route oral; conditions: plasma
[14] = AUC (0 to 24 hrs) in Crl:CD (SD) albino rat at 0.5 mg/kg, po; type: ADME, organism-based; design: time < 24 hr, dose 0.5 mg/kg, route oral; conditions: plasma
[15] = Tmax in Crl:CD (SD) albino rat at 0.5 mg/kg, po; type: ADME, organism-based; design: dose 0.5 mg/kg, route oral; conditions: in vivo
[16] = Tmax in cynomolgus monkey at 0.5 mg/kg, po; type: ADME, organism-based, Macaca fascicularis; design: dose 0.5 mg/kg, route oral; conditions: in vivo
[17] = Cmax in cynomolgus monkey at 0.5 mg/kg, po; type: ADME, organism-based, Macaca fascicularis; design: dose 0.5 mg/kg, route oral; conditions: in vivo
[18] = Cmax in Crl:CD (SD) albino rat at 0.5 mg/kg, po; type: ADME, organism-based; design: dose 0.5 mg/kg, route oral; conditions: in vivo
[19] = Total plasma clearance in cynomolgus monkey at […], iv; type: ADME, organism-based, Macaca fascicularis; design: dose 0.25 mg/kg, route intravenous
[20] = Total plasma clearance in Crl:CD (SD) albino rat at […], iv; type: ADME, organism-based; design: dose 0.25 mg/kg, route intravenous
[21] = Volume of distribution at steady state in cynomolgus monkey at […], iv; type: ADME, organism-based, Macaca fascicularis; design: dose 0.25 mg/kg, route intravenous; conditions: in vivo, read-out: Vdss
[22] = Volume of distribution at steady state in Crl:CD (SD) albino rat at […], iv; type: ADME, organism-based; design: dose 0.25 mg/kg, route intravenous; conditions: in vivo, read-out: Vdss
[23] = AUC (0 to 48 hrs) in cynomolgus monkey at […], iv; type: ADME, organism-based, Macaca fascicularis; design: time < 48 hr, dose 0.25 mg/kg, route intravenous; conditions: plasma
[24] = AUC (0 to 24 hrs) in Crl:CD (SD) albino rat at […], iv; type: ADME, organism-based; design: time < 24 hr, dose 0.25 mg/kg, route intravenous; conditions: plasma

- logD [1]: 2.21
- solubility thermodynamic at 18 h [2]: 14 µg/mL (≈ 31.1 µM)
- microsomal CLint at 1 µM [3]: 54 µL/min/mg
- microsomal CLint at 1 µM [4]: 9 µL/min/mg
Compound: Cc1cc(C(=O)Nc2cc(Oc3ccc4nc(NC(=O)C5CC5)cn4n3)ccc2F)n(C)n1

- logD [1]: 2.28
- solubility thermodynamic at 18 h [2]: 3.7 µg/mL (≈ 8.58 µM)
- microsomal CLint at 1 µM [3]: 43 µL/min/mg
- microsomal CLint at 1 µM [4]: 6 µL/min/mg
Compound: Cc1cc(C(=O)Nc2cccc(Oc3ccc4nc(NC(=O)C5CC5)cn4n3)c2)n(C)n1

- concentration at 8 h [5]: < 15 ng/g
- concentration at 8 h [6]: < 3 ng/mL
- concentration at 1 h [7]: 242 ng/g
- concentration at 1 h [8]: 451 ng/mL
- bioavailability [9]: 57.6%
- bioavailability [10]: 19.8%
- MRT [11]: 3.3 h
- MRT [12]: 11 h
- AUC(0-t) at 48 h [13]: 1510 ng·h/mL
- AUC(0-t) at 24 h [14]: 226 ng·h/mL
- Tmax [15]: 1.3 h
- Tmax [16]: 2.8 h
- Cmax [17]: 129 ng/mL
- Cmax [18]: 56 ng/mL
- clearance [19]: 3.18 mL/min/kg
- clearance [20]: 7.3 mL/min/kg
- Vd [21]: 1.03 L/kg
- Vd [22]: 0.471 L/kg
- AUC(0-t) at 48 h [23]: 1310 ng·h/mL
- logD [1]: 2.24
- AUC(0-t) at 24 h [24]: 571 ng·h/mL
- solubility thermodynamic at 18 h [2]: 38 µg/mL (≈ 85.3 µM)
- microsomal CLint at 1 µM [3]: 31 µL/min/mg
- microsomal CLint at 1 µM [4]: 2 µL/min/mg
Compound: Cc1cc(C(=O)Nc2cc(Oc3ccc4nc(NC(=O)C5CC5)cn4n3)ccc2C)n(C)n1 [TAK-593]
